In data set [1] the test system is A549 cells. As to the kind of experiment: Crystal violet cell viability / antiproliferative assay, A549. Conditions: for Selectivity index SInd, A549: IC50(BEAS-2B)/IC50(A549); for IC50: human NSCLC A549 cells, treatment time 72 h. The format is cell-based, human. As to the method: (§1) Human non-small-cell lung cancer cell lines A549 and H1975 and the human bronchial epithelial BEAS-2B cell line were purchased from ATCC (Manassas, VA). Cells were cultured in Roswell Park Memorial Institute (RPMI)-1640 media supplemented with 10% v/v fetal bovine serum, 100 U·mL^–1 penicillin, and 100 μg·mL^–1 streptomycin. Cells were grown in a humidified atmosphere at 37 °C and 5% CO2.
(§2) Crystal violet staining was used to assess cell viability. […] After 72 h, the medium was discarded and cells were stained for 30 min with 5% w/v crystal violet solution in 66% v/v methanol, 200 μL per well. After staining, the crystal violet solution was removed, and the 24-well plate was washed with water to eliminate the excess solution. When dried, the plates were photographed. Quantitation of crystal violet staining was performed after solubilizing the dye in 10% acetic acid, 400 μL per well, and reading the absorbance of each well at 540 nm (HT Synergy 96-well microplate reader, Bio-Tek Instruments, Winooski, VT). The relative absorbance of untreated cells was considered as 100% viability; results were expressed as a percentage of viable cells vs untreated cells.

The test system of data set [2] is H1975 cells. Description: Crystal violet cell viability / antiproliferative assay, H1975. The format is cell-based, human. Conditions: for Selectivity index SInd, H1975: IC50(BEAS-2B)/IC50(H1975); for IC50: human NSCLC H1975 cells, treatment time 72 h. How it is done: as §1, §2
The test system of data set [3] is BEAS-2B cells. Description: Crystal violet cell viability / antiproliferative assay, BEAS-2B. The data set is classed as cell-based, human. Conditions: for IC50: nonmalignant human bronchial epithelium BEAS-2B cells, treatment time 72 h. As to the method:
as §1, §2

The subject of data set [4] is A549 and H1975 cells. Description: ROS generation, CM-H2DCFDA fluorimetric assay, statements covering both cancer cell lines. Conditions: 1 h; for Effect of NAC addition on ROS generation: 20 μM compound, 50 μM NAC; for ROS generation compared with cisplatin, tamoxifen and 5-fluorouracil: both cancer cell types, 20 μM. The format is cell-based, human. As to the method:
(§3) Then, detached cells were resuspended in 0.5 mL of phosphate-buffered saline (PBS) containing 10 μM·L^–1 fluorescent probe 5-(and-6)-chloromethyl-2′,7′-dichlorodihydrofluorescein diacetate-acetyl ester (CM-H2DCFDA) and incubated for 15 min at 37 °C. Afterward, the incubation cells were centrifuged at 13,000 rpm for 30 s and resuspended in 0.5 mL of PBS. The fluorescence of each sample (index of ROS levels) was read at 488 nm (λexcitation) and 520 nm (λemission). The results were expressed as DCF fluorescence per mg cell proteins normalized vs control.

The test system of data set [5] is H1975 cells. Description: ROS generation, CM-H2DCFDA fluorimetric assay, H1975. The data set is classed as cell-based, human. Conditions: 20 μM, 1 h. As to the method:
as §3

For data set [6], the system named is A549 cells. Description: ROS generation, CM-H2DCFDA fluorimetric assay, A549. The format is cell-based, human. Conditions: 20 μM, 1 h. As to the method: as §3
Data set [7] can be described thus: Cyclic voltammetry in dichloromethane. The format is physicochemical. Conditions: for KC comproportionation constant: KC = exp(nF/RT)ΔE1/2, 25 °C; for Difference between the formal potentials: first and second oxidation; for E1°′ formal potential / E2°′ formal potential / E3°′ formal potential: vs FcH/[FcH]+, CH2Cl2, 0.1 mol·L–1 [NBu4][B(C6F5)4], 25 °C, scan rate 100 mV·s–1. As to the method: Electrochemical studies of compounds 1a, 1c, 2a, and 2c were carried out using cyclic voltammetry (CV) and square-wave voltammetry (SWV) (Table 1; Figures 5 (compounds 1a, 2a) and S13 (compounds 1c, 2c), see the SI). A solution of [NBu4][B(C6F5)4] (0.1 mol·L^–1) in anhydrous CH2Cl2 was used as the supporting electrolyte.[79] The choice of the supporting electrolyte was motivated by the beneficial properties of [B(C6F5)4]^− ions. In contrast to smaller counter ions such as [Cl]^−, [PF6]^−, [BF4]^−, or [ClO4]^−, [B(C6F5)4]^− tolerates the stabilization of greatly charged species in solution, minimizing undesired ion-pairing effects.[80],[81] The voltammetry experiments were performed at 25 °C. All potentials are referenced to the FcH/[FcH]^+ (Fc = Fe(η^5-C5H4)(η^5-C5H5)) redox couple (E°′ = 0 mV).[82]
Measurements on 1.0 mmol·L^–1 solutions of analytes 1a, 1c, 2a, and 2c in anhydrous dichloromethane solutions, containing 0.1 mol·L^–1 [NBu4][B(C6F5)4] as the supporting electrolyte, were conducted under an atmosphere of argon at 25 °C. A three-electrode cell, which utilized a Pt auxiliary electrode, a glassy carbon working electrode (surface area 0.031 cm^2), and an Ag/Ag^+ (0.01 mol·L^–1 AgNO3) reference electrode, was used as described in refs ([82]) and ([102]−[104]). […] Experimental potentials were referenced against an Ag/Ag^+ reference electrode, but results presented are referenced against the ferrocene [FcH/FcH^+ couple = 220 mV vs Ag/Ag^+, ΔEp = 61 mV; FcH = Fe(η^5-C5H5)2] as an internal standard.[82] When decamethylferrocene [Fc* = Fe(η^5-C5Me5)2] was used as an internal standard, the experimentally measured potentials were converted into Evs FcH/FcH^+ (under our conditions, the Fc*/Fc*^+ couple was at −614 mV vs FcH/FcH^+, ΔEp = 60 mV).

The mark [8] stands for this setting: versus cisplatin, tamoxifen, 5-fluorouracil.

Molecules are shown by their SMILES. “And” between values parts separate entries of the source, which are not always exact repeats. Identical values can stand only once.

On to `O=c1[nH]cc(F)c(=O)[nH]1` [5-fluorouracil, reference compound], for which, in data set [1] (72 h), the “Selectivity index SInd, A549” value is 0.1. For the same molecule, the 50% inhibitory concentration (IC50) in data set [1] was found to be 69 ± 21 µM; in data set [2] (NCI-H1975) it was 32 ± 12 µM; in data set [3] it was 6 ± 0.1 µM. In addition, the “Selectivity index SInd, H1975” value in data set [2] (72 h) turned out to be 0.2. For the same molecule, the “Effect of NAC addition on ROS generation” value in data set [4] is listed as “almost no effect”.
For `N.N.[Cl][Pt][Cl]` [cisplatin, reference compound], the “Selectivity index SInd, A549” value in data set [1] (72 h) was found to be 0.02. The IC50 in data set [1] stood at 108 ± 12 µM; in data set [2], 4 ± 0.1 µM; in data set [3], 3 ± 0.1 µM. The “Selectivity index SInd, H1975” value in data set [2] (72 h) is 0.7. Further, in data set [4], the “Effect of NAC addition on ROS generation” value is on record as “almost no effect”.
Take `Cc1cn([C@H]2C[C@H](n3nnc(-[c-]4cccc4)c3C#C[c-]3cccc3)[C@@H](CO)O2)c(=O)[nH]c1=O.[Fe+2].[Fe+2].c1cc[cH-]c1.c1cc[cH-]c1` [compound 1a, 3′-Deoxy-3′-(4-ferrocenyl-5-ethynylferrocenyl-1H-1,2,3-triazol-1-yl)thymidine]: the “Increase of cell viability with NAC compared to cells treated only with compound” value in data set [1] (A549 cells, 20 μM compound, 50 μM NAC, 72 h) is “analogous increase”; in data set [2] (H1975 cells, 20 μM compound, 50 μM NAC, 72 h) it was about 20%; in data set [3] (BEAS-2B cells, 20 μM compound, 50 μM NAC, 72 h), “analogous increase”. Moreover, the “Selectivity index SInd, A549” value in data set [1] (72 h) worked out at 8.2. For the same molecule, the half-inhibitory concentration (IC50) in data set [1] was determined as 57 ± 18 µM; in data set [2] it was 5 ± 2 µM; in data set [3], 469 ± 10 µM. The “Selectivity index SInd, H1975” value in data set [2] (72 h) is 93.8. In addition, the “ROS generated, times more than 1c” value in data set [5] is “about 1.6 times”; in data set [6] it was about 2.5 times. Also, the “ROS generation, times more potent than reference drugs” value was “about 2 times” in data set [5] (setting [8]) and about 2.5 times in data set [6] (setting [8]). Moreover, in data set [4], the “ROS generation compared with cisplatin, tamoxifen and 5-fluorouracil” value is reported as “more effective ROS generators”. Also, the KC comproportionation constant in data set [7] came out at 2412. Further, in data set [7], the “Difference between the formal potentials” value is 200 mV. In addition, in data set [7], the “E1°′ formal potential” value was 80 mV and 80 (60) mV. The “E2°′ formal potential” value in data set [7] is 280 mV and 280 (66) mV.
Consider `Cc1cn([C@H]2C[C@H](n3cc(-[c-]4cccc4)nn3)[C@@H](CO)O2)c(=O)[nH]c1=O.[Fe+2].c1cc[cH-]c1` [compound 1c, 3′-Deoxy-3′-(4-ferrocenyl-1H-1,2,3-triazol-1-yl)thymidine], for which, in data set [1] (72 h), the “Selectivity index SInd, A549” value amounted to 0.9. Besides, the 50% inhibitory concentration (IC50) in data set [1] is 230 ± 13 µM; in data set [2] it was 456 ± 17 µM; in data set [3], 215 ± 7 µM. Also, the “Selectivity index SInd, H1975” value in data set [2] (72 h) is 0.5. Further, in data set [4], the “ROS generation compared with cisplatin, tamoxifen and 5-fluorouracil” value was “more effective ROS generators”. In data set [7], the “E1°′ formal potential” value is 60 mV and 60 (66) mV.
As for `O=C(CCn1nnc(-[c-]2cccc2)c1C#C[c-]1cccc1)[c-]1cccc1.[Fe+2].[Fe+2].[Fe+2].c1cc[cH-]c1.c1cc[cH-]c1.c1cc[cH-]c1` [compound 2a, 1-(3-Propionylferrocenyl)-4-ferrocenyl-5-ethynylferrocenyl-1H-1,2,3-triazole], the “Selectivity index SInd, A549” value in data set [1] (72 h) was found to be 1.4. Also, the IC50 in data set [1] turned out to be 184 ± 7 µM. Also, the “Selectivity index SInd, H1975” value in data set [2] (72 h) was determined as 3.0. Besides, the IC50 in data set [2] is 84 ± 5 µM. Also, in data set [3], the IC50 amounted to 257 ± 5 µM. In data set [7], the KC comproportionation constant is reported as 9426; the “Difference between the formal potentials” value is on record as 235 mV; the “E1°′ formal potential” value is 45 mV and 45 (60) mV; the “E2°′ formal potential” value is 280 mV and 280 (61) mV. In addition, the “E3°′ formal potential” value in data set [7] is 365 mV and 365 (63) mV.
As to `O=C(CCn1cc(-[c-]2cccc2)nn1)[c-]1cccc1.[Fe+2].[Fe+2].c1cc[cH-]c1.c1cc[cH-]c1` [compound 2c, 1-(3-Propionyloferrocenyl)-4-ferrocenyl-1H-1,2,3-triazole], the “Selectivity index SInd, A549” value in data set [1] (72 h) was found to be 0.2. Also, the IC50 was 805 ± 72 µM in data set [1], 122 ± 45 µM in data set [2] and 198 ± 7 µM in data set [3]. Moreover, in data set [2] (72 h), the “Selectivity index SInd, H1975” value is recorded as 1.6. Besides, the “E1°′ formal potential” value in data set [7] is 20 mV and 20 (61) mV. The “E3°′ formal potential” value in data set [7] is 330 mV and 330 (67) mV.
Consider `CC/C(=C(\c1ccccc1)c1ccc(OCCN(C)C)cc1)c1ccccc1` [tamoxifen], for which the “Effect of NAC addition on ROS generation” value in data set [4] is given as “almost no effect”.

The values above are taken from publication PMC9490837, “Electronic Coupling in 1,2,3-Triazole Bridged Ferrocenes and Its Impact on Reactive Oxygen Species Generation and Deleterious Activity in Cancer Cells” (Inorganic Chemistry, 2022).
